In brackets after ≈: the same amount, converted by molar mass. Read-outs that look alike come from different tables or passages of the source.
Experiments:
[1] = comparison among long-chain fatty acids; cited from earlier work
Candida Species [2] = conditions: cited from earlier work
Candida Species [3] = test: minimum inhibitory concentration against Candida; type: cell-based; conditions: conversion of 0.45 μmoles/ml
C. albicans = conditions: cited from earlier work
[4] = tested on: oral pathogenic microorganisms; conditions: n-6 fatty acids GLA; cited from earlier work

Compound | antimicrobial activity among the long-chain fatty acids [1] | MIC (Candida Species [2]) | MIC (Candida Species [3]) | activity against C. albicans (C. albicans) | bactericidal concentration [4]
CCCCCCCCCCCCCCCC(=O)O [palmitic acid] | greatest antimicrobial activity |  |  |  | 
CCCCC/C=C\C/C=C\CCCCCCCC(=O)O [linoleic acid] | greatest antimicrobial activity | 450 µM (≈ 126 µg/mL) | 0.13 µg/mL (≈ 0.464 µM) | < 40% | 
CCCCC/C=C\C/C=C\C/C=C\C/C=C\CCCC(=O)O [arachidonic acid] | greatest antimicrobial activity |  |  |  | 
CCCCC/C=C\C/C=C\C/C=C\CCCCC(=O)O [GLA, gamma linoleic acid] | greatest antimicrobial activity |  |  |  | 25 µg/mL
CCCCCC/C=C\CCCCCCCC(=O)O [palmitoleic acid] | greatest antimicrobial activity |  |  |  | 

Reference: patent US11000487B2, “Compositions and methods for the treatment of chronic pain” (CELLIX BIO PRIVATE LIMITED, priority 2016, dated 2021)
